Assay results from US20260216347A1, “Substituted Imidazo-Based Compounds as Ligand Directed Degraders of IRAK3” (Celgene Corporation, priority 2022, published 2026).

Molecular target: T1, IRAK3 (Homo sapiens, UniProt Q9Y616)
T1 construct: IRAK Endogenous HTRF Degradation Assay; endogenous in cells
T1 sequence (Q9Y616 1-596): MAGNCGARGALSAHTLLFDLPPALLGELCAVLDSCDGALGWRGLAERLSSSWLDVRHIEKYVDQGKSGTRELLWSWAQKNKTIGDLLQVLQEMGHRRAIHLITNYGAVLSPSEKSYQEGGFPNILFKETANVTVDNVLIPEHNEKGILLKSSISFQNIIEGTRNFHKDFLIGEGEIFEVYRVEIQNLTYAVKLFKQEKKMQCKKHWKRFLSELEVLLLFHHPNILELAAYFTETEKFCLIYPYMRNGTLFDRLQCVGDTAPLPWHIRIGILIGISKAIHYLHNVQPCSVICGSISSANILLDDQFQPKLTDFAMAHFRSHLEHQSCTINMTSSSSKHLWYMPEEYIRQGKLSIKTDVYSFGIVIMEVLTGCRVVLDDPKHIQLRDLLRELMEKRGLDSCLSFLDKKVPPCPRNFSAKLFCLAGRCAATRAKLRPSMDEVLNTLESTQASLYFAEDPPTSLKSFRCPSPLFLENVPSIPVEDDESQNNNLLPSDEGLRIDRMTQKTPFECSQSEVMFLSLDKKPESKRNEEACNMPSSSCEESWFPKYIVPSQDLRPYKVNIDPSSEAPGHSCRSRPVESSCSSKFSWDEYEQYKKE
Experiment: IRAK3 biochemical binding assay (LanthaScreen Eu Kinase Binding, TR-FRET)
Procedure, shortened: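 TR-FRET tracer-displacement binding with 10 nM IRAK3, 2 nM Eu-anti-GST antibody and 10 nM tracer in 50 mM HEPES pH 7.4, MgCl2, 1 mM EGTA, 0.01% Brij-35. Compounds in 3-fold dilutions, 1 h at room temperature. 665/615 nm ratio gave % inhibition; IC50 and Hill slope from dose-response fit.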

SMILES | IC50
Cc1cc(-c2cnc(Nc3cnn([C@H]4CC[C@@H](CN5CCN(c6ccc(C7CCC(=O)NC7=O)cc6)CC5)CC4)c3)c3nccn23)c(F)cc1F (relative stereo) [Compound 71, 3-(4-(4-(((cis)-4-(4-((5-(2,4-difluoro-5-methylphenyl)imidazo[1,2-a]pyrazin-8-yl)amino)-1H-pyrazol-1-yl)cyclohexyl)methyl)piperazin-1-yl)phenyl) piperidine-2,6-dione] | 2.8 nM
Cc1cccc(-c2cnc(Nc3cnn(C4CCN(CC(=O)N5CCN(c6ccc7c(c6)C(=O)N(C6CCC(=O)NC6=O)C7=O)CC5)CC4)c3)c3nccn23)c1 (stereo not shown) [Compound 1, 2-(2,6-dioxopiperidin-3-yl)-5-(4-(2-(4-(4-((5-(m-tolyl)imidazo[1,2-a]pyrazin-8-yl)amino)-1H-pyrazol-1-yl)piperidin-1-yl)acetyl)piperazin-1-yl)isoindoline-1,3-dione] | 5 nM
Cc1cccc(-c2cnc(Nc3cnn(C4CCN(CCN5CCN(c6ccc7c(c6)C(=O)N(C6CCC(=O)NC6=O)C7=O)CC5)CC4)c3)c3nccn23)c1 (stereo not shown) [Compound 2, 2-(2,6-dioxopiperidin-3-yl)-5-(4-(2-(4-(4-((5-(m-tolyl)imidazo[1,2-a]pyrazin-8-yl)amino)-1H-pyrazol-1-yl)piperidin-1-yl)ethyl)piperazin-1-yl)isoindoline-1,3-dione] | 4.2 nM
Cc1cccc(-c2cnc(Nc3cnn(C4CCN(CCCCN5CCN(c6ccc(C7CCC(=O)NC7=O)cc6)CC5)CC4)c3)c3nccn23)c1 (stereo not shown) [Compound 3, 3-(4-(4-(4-(4-(4-((5-(m-tolyl)imidazo[1,2-a]pyrazin-8-yl)amino)-1H-pyrazol-1-yl)piperidin-1-yl)butyl)piperazin-1-yl)phenyl) piperidine-2,6-dione] | 1.3 nM
Cc1cccc(-c2cnc(Nc3cnn(C4CCN(CCCN5CCN(c6ccc(C7CCC(=O)NC7=O)cc6)CC5)CC4)c3)c3nccn23)c1 (stereo not shown) [Compound 4, 3-(4-(4-(3-(4-(4-((5-(m-tolyl)imidazo[1,2-a]pyrazin-8-yl)amino)-1H-pyrazol-1-yl)piperidin-1-yl)propyl)piperazin-1-yl)phenyl) piperidine-2,6-dione] | 2.3 nM
Cc1cc(-c2cnc(Nc3cnn(C4CCN(CC(=O)N5CCN(c6ccc7c(c6)C(=O)N(C6CCC(=O)NC6=O)C7=O)CC5)CC4)c3)c3nccn23)c(F)cc1F (stereo not shown) [Compound 6, 5-(4-(2-(4-(4-((5-(2,4-difluoro-5-methylphenyl)imidazo[1,2-a]pyrazin-8-yl)amino)-1H-pyrazol-1-yl)piperidin-1-yl)acetyl)piperazin-1-yl)-2-(2,6-dioxopiperidin-3-yl)isoindoline-1,3-dione] | 1 nM
Cc1cc(-c2cnc(Nc3cnn(C4CCN(CCN5CCN(c6ccc(C7CCC(=O)NC7=O)cc6)C[C@@H]5C)CC4)c3)c3nccn23)c(F)cc1F (stereo partly drawn) [Compound 7, 3-(4-((S)-4-(2-(4-(4-((5-(2,4-difluoro-5-methylphenyl)imdazo [1,2-a]pyrazin-8-yl)amino)-1H-pyrazol-1-yl)piperidin-1-yl)ethyl)-3-methylpiperazin-1-yl)phenyl) piperidine-2,6-dione] | 1.5 nM
Cc1cc(-c2cnc(Nc3cnn(C4CCN(CCN5CCN(c6ccc(C7CCC(=O)NC7=O)cc6)CC5)CC4)c3)c3nccn23)c(F)cc1F (stereo not shown) [Compound 8, 3-(4-(4-(2-(4-(4-((5-(2,4-difluoro-5-methylphenyl)imidazo[1,2-a]pyrazin-8-yl)amino)-1H-pyrazol-1-yl)piperidin-1-yl)ethyl)piperazin-1-yl)phenyl)piperidine-2,6-dione] | 1.3 nM
Cc1cc(-c2cnc(Nc3cnn(C4CCN(CCN5CCN(c6ccc(C7CCC(=O)NC7=O)cc6)C[C@H]5C)CC4)c3)c3nccn23)c(F)cc1F (stereo partly drawn) [Compound 9, 3-(4-((R)-4-(2-(4-(4-((5-(2,4-difluoro-5-methylphenyl)imdazo [1,2-a]pyrazin-8-yl)amino)-1H-pyrazol-1-yl)piperidin-1-yl)ethyl)-3-methylpiperazin-1-yl)phenyl) piperidine-2,6-dione] | 1.1 nM
Cc1cc(-c2cnc(Nc3cnn(C4CCN(CC(=O)N5CCN(c6ccc7c(c6)CN(C6CCC(=O)NC6=O)C7=O)CC5)CC4)c3)c3nccn23)c(F)cc1F (stereo not shown) [Compound 10, 3-(5-(4-(2-(4-(4-((5-(2,4-difluoro-5-methylphenyl)imidazo[1,2-a]pyrazin-8-yl)amino)-1H-pyrazol-1-yl)piperidin-1-yl)acetyl)piperazin-1-yl)-1-oxoisoindolin-2-yl)piperidine-2,6-dione] | 0.51 nM
Cc1cc(-c2cnc(Nc3cnn([C@H]4CC[C@H](CCN5CCN(c6ccc(C7CCC(=O)NC7=O)cc6)CC5)CC4)c3)c3nccn23)c(F)cc1F (stereo partly drawn) [Compound 11, 3-(4-(4-(2-((trans)-4-(4-((5-(2,4-difluoro-5-methylphenyl)imidazo[1,2-a]pyrazin-8-yl)amino)-1H-pyrazol-1-yl)cyclohexyl)ethyl)piperazin-1-yl)phenyl)piperidine-2,6-dione] | 8.9 nM
Cc1cc(-c2ccc(Nc3cnn(C4CCN(CCN5CCN(c6ccc(C7CCC(=O)NC7=O)cc6)CC5)CC4)c3)c3nccn23)c(F)cc1F (stereo not shown) [Compound 12, 3-(4-(4-(2-(4-(4-((5-(2,4-difluoro-5-methylphenyl)imdazo [1,2-a]pyridin-8-yl)amino)-1H-pyrazol-1-yl)piperidin-1-yl)ethyl)piperazin-1-yl)phenyl) piperidine-2,6-dione] | 2 nM
Cc1cc(-c2cnc(Nc3cnn(C4CCN(CCN5[C@H](C)CN(c6ccc(C7CCC(=O)NC7=O)cc6)C[C@@H]5C)CC4)c3)c3nccn23)c(F)cc1F (stereo partly drawn) [Compound 13, 3-(4-((3S,5R)-4-(2-(4-(4-((5-(2,4-difluoro-5-methylphenyl)imdazo [1,2-a]pyrazin-8-yl)amino)-1H-pyrazol-1-yl)piperidin-1-yl)ethyl)-3,5-dimethylpiperazin-1-yl)phenyl) piperidine-2,6-dione] | 1.3 nM
Cc1cc(-c2cnc(Nc3cnn([C@H]4CC[C@@H](CCN5CCN(c6ccc(C7CCC(=O)NC7=O)cc6)CC5)CC4)c3)c3nccn23)c(F)cc1F (stereo partly drawn) [Compound 14, 3-(4-(4-(2-((cis)-4-(4-((5-(2,4-difluoro-5-methylphenyl)imidazo[1,2-a]pyrazin-8-yl)amino)-1H-pyrazol-1-yl)cyclohexyl)ethyl)piperazin-1-yl)phenyl) piperidine-2,6-dione] | 4.3 nM
Cc1cccc(-c2cnc(Nc3cnn(C4CCN(CC(=O)N5CCN(c6ccc7c(c6)C(=O)N(C6CCC(=O)NC6=O)C7)CC5)CC4)c3)c3nccn23)c1 (stereo not shown) [Compound 16, 3-(1-oxo-6-(4-(2-(4-(4-((5-(m-tolyl)imidazo[1,2-a]pyrazin-8-yl)amino)-1H-pyrazol-1-yl)piperidin-1-yl)acetyl)piperazin-1-yl)isoindolin-2-yl)piperidine-2,6-dione] | 1.5 nM
Cc1cc(-c2cnc(Nc3cnn(C4CCN(CC(=O)N5CCN(c6ccc(C7CCC(=O)NC7=O)cc6)CC5)CC4)c3)c3nccn23)c(F)cc1F (stereo not shown) [Compound 17, 3-(4-(4-(2-(4-(4-((5-(2,4-difluoro-5-methylphenyl)imidazo[1,2-a]pyrazin-8-yl)amino)-1H-pyrazol-1-yl)piperidin-1-yl)acetyl)piperazin-1-yl)phenyl)piperidine-2,6-dione] | 1.3 nM
